{"source": "PubChem BioAssay (NCI)", "experiment_in_all_cases": "NCI-60 cell line screen, 48 h", "key": {"MALME-3M melanoma": {"tested_on": "MALME-3M melanoma"}, "SNB-75 CNS": {"tested_on": "SNB-75 CNS"}, "SK-OV-3 ovarian": {"tested_on": "SK-OV-3 ovarian"}, "SK-MEL-28 melanoma": {"tested_on": "SK-MEL-28 melanoma"}, "ACHN renal": {"tested_on": "ACHN renal"}, "SF-539 CNS": {"tested_on": "SF-539 CNS"}, "MOLT-4 leukemia": {"tested_on": "MOLT-4 leukemia"}, "HCC-2998 colon": {"tested_on": "HCC-2998 colon"}, "MDA-MB-435": {"tested_on": "MDA-MB-435"}, "T-47D breast": {"tested_on": "T-47D breast"}}, "note": "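Protocol summary: plate cells (96-well), add compound at 5 concentrations, incubate 48 h, interpolate endpoints linearly. GI50: concentration for 50% inhibition of growth. TGI: total growth inhibition.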", "data": [{"smiles": "Nc1ccccc1S(=O)c1ccccc1", "note": "(centres undefined)", "values": [{"measurement": "TGI", "setting": "MALME-3M melanoma", "value": "> 100", "unit": "µM"}, {"measurement": "TGI", "setting": "SNB-75 CNS", "value": "> 100", "unit": "µM"}, {"measurement": "TGI", "setting": "SK-OV-3 ovarian", "value": "> 100", "unit": "µM"}, {"measurement": "TGI", "setting": "SK-MEL-28 melanoma", "value": "> 100", "unit": "µM"}, {"measurement": "TGI", "setting": "ACHN renal", "value": "> 100", "unit": "µM"}, {"measurement": "TGI", "setting": "SF-539 CNS", "value": "> 100", "unit": "µM"}, {"measurement": "TGI", "setting": "MOLT-4 leukemia", "value": "> 100", "unit": "µM"}, {"measurement": "TGI", "setting": "HCC-2998 colon", "value": "> 100", "unit": "µM"}]}, {"smiles": "OCC1OC(n2ccc3cnccc32)CC1O", "note": "(centres undefined)", "values": [{"measurement": "TGI", "setting": "MALME-3M melanoma", "value": "> 100", "unit": "µM"}, {"measurement": "TGI", "setting": "SNB-75 CNS", "value": "> 100", "unit": "µM"}, {"measurement": "TGI", "setting": "SK-OV-3 ovarian", "value": "> 100", "unit": "µM"}, {"measurement": "TGI", "setting": "SK-MEL-28 melanoma", "value": "> 100", "unit": "µM"}, {"measurement": "TGI", "setting": "ACHN renal", "value": "> 100", "unit": "µM"}, {"measurement": "TGI", "setting": "SF-539 CNS", "value": "> 100", "unit": "µM"}, {"measurement": "TGI", "setting": "MOLT-4 leukemia", "value": "> 100", "unit": "µM"}, {"measurement": "TGI", "setting": "HCC-2998 colon", "value": "> 100", "unit": "µM"}]}, {"smiles": "Cc1ccccc1NC(=O)N/C(N)=N/c1nc2ccccc2s1", "values": [{"measurement": "GI50", "setting": "MALME-3M melanoma", "value": 0.0693, "unit": "µM"}, {"measurement": "TGI", "setting": "MALME-3M melanoma", "value": "> 100", "unit": "µM"}, {"measurement": "GI50", "setting": "SNB-75 CNS", "value": "< 0.0165", "unit": "µM"}, {"measurement": "TGI", "setting": "SNB-75 CNS", "value": 0.446, "unit": "µM"}, {"measurement": "GI50", "setting": "SK-OV-3 ovarian", "value": 0.416, "unit": "µM"}, {"measurement": "TGI", "setting": "SK-OV-3 ovarian", "value": "> 100", "unit": "µM"}, {"measurement": "GI50", "setting": "SK-MEL-28 melanoma", "value": 3.37, "unit": "µM"}, {"measurement": "TGI", "setting": "SK-MEL-28 melanoma", "value": "> 100", "unit": "µM"}, {"measurement": "GI50", "setting": "MDA-MB-435", "value": 0.0208, "unit": "µM"}, {"measurement": "TGI", "setting": "MDA-MB-435", "value": 0.0553, "unit": "µM"}, {"measurement": "GI50", "setting": "ACHN renal", "value": 0.0729, "unit": "µM"}, {"measurement": "TGI", "setting": "ACHN renal", "value": "> 100", "unit": "µM"}, {"measurement": "GI50", "setting": "SF-539 CNS", "value": 0.041, "unit": "µM"}, {"measurement": "TGI", "setting": "SF-539 CNS", "value": 0.725, "unit": "µM"}, {"measurement": "GI50", "setting": "MOLT-4 leukemia", "value": 0.0569, "unit": "µM"}, {"measurement": "TGI", "setting": "MOLT-4 leukemia", "value": "> 100", "unit": "µM"}, {"measurement": "GI50", "setting": "HCC-2998 colon", "value": 0.145, "unit": "µM"}, {"measurement": "TGI", "setting": "HCC-2998 colon", "value": "> 100", "unit": "µM"}]}, {"smiles": "COC(=O)C1C2CC3C(OC(=O)C31)C2I", "note": "(centres undefined)", "values": [{"measurement": "TGI", "setting": "MALME-3M melanoma", "value": "> 100", "unit": "µM"}, {"measurement": "TGI", "setting": "SNB-75 CNS", "value": "> 100", "unit": "µM"}, {"measurement": "TGI", "setting": "SK-OV-3 ovarian", "value": "> 100", "unit": "µM"}, {"measurement": "TGI", "setting": "SK-MEL-28 melanoma", "value": "> 10", "unit": "µM"}, {"measurement": "TGI", "setting": "ACHN renal", "value": "> 100", "unit": "µM"}, {"measurement": "TGI", "setting": "SF-539 CNS", "value": "> 100", "unit": "µM"}, {"measurement": "TGI", "setting": "MOLT-4 leukemia", "value": "> 100", "unit": "µM"}, {"measurement": "TGI", "setting": "HCC-2998 colon", "value": "> 100", "unit": "µM"}]}, {"smiles": "Cc1cc(NC(=O)NC(=O)c2ccccc2[N+](=O)[O-])ccc1Oc1ncc(Cl)cn1", "values": [{"measurement": "TGI", "setting": "MALME-3M melanoma", "value": 43.8, "unit": "µM"}, {"measurement": "TGI", "setting": "SNB-75 CNS", "value": 1.59, "unit": "µM"}, {"measurement": "TGI", "setting": "SK-OV-3 ovarian", "value": 24.1, "unit": "µM"}, {"measurement": "TGI", "setting": "SK-MEL-28 melanoma", "value": 98, "unit": "µM"}, {"measurement": "TGI", "setting": "ACHN renal", "value": 42.1, "unit": "µM"}, {"measurement": "TGI", "setting": "SF-539 CNS", "value": 9.5, "unit": "µM"}, {"measurement": "TGI", "setting": "MOLT-4 leukemia", "value": "> 100", "unit": "µM"}, {"measurement": "TGI", "setting": "HCC-2998 colon", "value": 0.6, "unit": "µM"}, {"measurement": "TGI", "setting": "T-47D breast", "value": "> 100", "unit": "µM"}]}, {"smiles": "COC1OC(COCc2ccc(Cl)cc2)C(OCc2ccc(Cl)cc2)C1O", "note": "(centres undefined)", "values": [{"measurement": "TGI", "setting": "MALME-3M melanoma", "value": 30.3, "unit": "µM"}, {"measurement": "TGI", "setting": "SNB-75 CNS", "value": 32.8, "unit": "µM"}, {"measurement": "TGI", "setting": "SK-OV-3 ovarian", "value": 65.9, "unit": "µM"}, {"measurement": "TGI", "setting": "SK-MEL-28 melanoma", "value": 31.4, "unit": "µM"}, {"measurement": "TGI", "setting": "ACHN renal", "value": 40.2, "unit": "µM"}, {"measurement": "TGI", "setting": "SF-539 CNS", "value": 30.3, "unit": "µM"}, {"measurement": "TGI", "setting": "MOLT-4 leukemia", "value": 66.6, "unit": "µM"}, {"measurement": "TGI", "setting": "HCC-2998 colon", "value": 32.6, "unit": "µM"}]}, {"smiles": "COC(=O)C1C(=O)O[C@@H](c2ccc(OC)cc2)C1C(=O)OC", "note": "(some centres undefined)", "values": [{"measurement": "TGI", "setting": "MALME-3M melanoma", "value": "> 100", "unit": "µM"}, {"measurement": "TGI", "setting": "SNB-75 CNS", "value": "> 100", "unit": "µM"}, {"measurement": "TGI", "setting": "SK-OV-3 ovarian", "value": "> 100", "unit": "µM"}, {"measurement": "TGI", "setting": "SK-MEL-28 melanoma", "value": "> 100", "unit": "µM"}, {"measurement": "TGI", "setting": "ACHN renal", "value": "> 100", "unit": "µM"}, {"measurement": "TGI", "setting": "SF-539 CNS", "value": "> 100", "unit": "µM"}, {"measurement": "TGI", "setting": "MOLT-4 leukemia", "value": "> 100", "unit": "µM"}, {"measurement": "TGI", "setting": "HCC-2998 colon", "value": "> 100", "unit": "µM"}]}, {"smiles": "CCCCCCCCC(=O)CCCCCCCCC(=O)O", "values": [{"measurement": "TGI", "setting": "MALME-3M melanoma", "value": "> 100", "unit": "µM"}, {"measurement": "TGI", "setting": "SNB-75 CNS", "value": "> 100", "unit": "µM"}, {"measurement": "TGI", "setting": "SK-OV-3 ovarian", "value": "> 100", "unit": "µM"}, {"measurement": "TGI", "setting": "SK-MEL-28 melanoma", "value": "> 100", "unit": "µM"}, {"measurement": "TGI", "setting": "ACHN renal", "value": 59.8, "unit": "µM"}, {"measurement": "TGI", "setting": "SF-539 CNS", "value": 42.5, "unit": "µM"}, {"measurement": "TGI", "setting": "MOLT-4 leukemia", "value": 40.2, "unit": "µM"}]}, {"smiles": "Oc1c(Cl)cc(C(c2cc(Cl)c(O)c(Cl)c2)C(c2cc(Cl)c(O)c(Cl)c2)c2cc(Cl)c(O)c(Cl)c2)cc1Cl", "values": [{"measurement": "GI50", "setting": "MALME-3M melanoma", "value": 5.88, "unit": "µM"}, {"measurement": "TGI", "setting": "MALME-3M melanoma", "value": 30.4, "unit": "µM"}, {"measurement": "GI50", "setting": "SNB-75 CNS", "value": 3.08, "unit": "µM"}, {"measurement": "TGI", "setting": "SNB-75 CNS", "value": 7.87, "unit": "µM"}, {"measurement": "GI50", "setting": "SK-OV-3 ovarian", "value": 11.3, "unit": "µM"}, {"measurement": "TGI", "setting": "SK-OV-3 ovarian", "value": 23.4, "unit": "µM"}, {"measurement": "GI50", "setting": "SK-MEL-28 melanoma", "value": 5.27, "unit": "µM"}, {"measurement": "TGI", "setting": "SK-MEL-28 melanoma", "value": 54.3, "unit": "µM"}, {"measurement": "GI50", "setting": "MDA-MB-435", "value": 5.64, "unit": "µM"}, {"measurement": "TGI", "setting": "MDA-MB-435", "value": 19.2, "unit": "µM"}, {"measurement": "GI50", "setting": "ACHN renal", "value": 5.21, "unit": "µM"}, {"measurement": "TGI", "setting": "ACHN renal", "value": 20.3, "unit": "µM"}, {"measurement": "GI50", "setting": "SF-539 CNS", "value": 5.33, "unit": "µM"}, {"measurement": "TGI", "setting": "SF-539 CNS", "value": 20.4, "unit": "µM"}, {"measurement": "GI50", "setting": "HCC-2998 colon", "value": 3.79, "unit": "µM"}, {"measurement": "TGI", "setting": "HCC-2998 colon", "value": 14.3, "unit": "µM"}, {"measurement": "GI50", "setting": "T-47D breast", "value": 1.74, "unit": "µM"}, {"measurement": "TGI", "setting": "T-47D breast", "value": 12.5, "unit": "µM"}]}, {"smiles": "NC1=NN(c2ccccc2)C(=O)C1C(=O)C(=O)NC1C2CC3CC(C2)CC1C3", "note": "(centres undefined)", "values": [{"measurement": "TGI", "setting": "MALME-3M melanoma", "value": "> 100", "unit": "µM"}, {"measurement": "TGI", "setting": "SK-OV-3 ovarian", "value": "> 100", "unit": "µM"}, {"measurement": "TGI", "setting": "SK-MEL-28 melanoma", "value": "> 100", "unit": "µM"}, {"measurement": "TGI", "setting": "ACHN renal", "value": "> 100", "unit": "µM"}, {"measurement": "TGI", "setting": "SF-539 CNS", "value": "> 100", "unit": "µM"}, {"measurement": "TGI", "setting": "MOLT-4 leukemia", "value": "> 100", "unit": "µM"}, {"measurement": "TGI", "setting": "HCC-2998 colon", "value": "> 100", "unit": "µM"}]}]}
